This is an account of results in patent publication US11420969B2 (Exonate Limited, priority 2017, dated 2022).

Like-named read-outs stand apart in the source and are kept apart here. Where only a bound is given, the exact number is not on record here.

One assay addresses T1, CYP2C9 (Homo sapiens, UniProt P11712).
T1 construct: from tissue; host or cells: human liver microsomes
The assay is described as follows: CYP inhibition assay, human liver microsomes, substrate diclofenac. It is filed as in vitro ADME. Summed up: (§1)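 Metabolite formation measured by LC-MS/MS after quench with cold acetonitrile, yielding % inhibition and IC50. Reactions ran 10 min at 37° C after NADPH addition, following 20 min pre-incubation of substrate pool and inhibitor with human liver microsomes.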
In general terms: Liver microsomes are a subcellular fraction often used to study metabolism.

In the next assay the target is T2, CYP2D6 (Homo sapiens, UniProt P10635).
T2 construct: from tissue; host or cells: human liver microsomes
T2 sequence (P10635 whole entry): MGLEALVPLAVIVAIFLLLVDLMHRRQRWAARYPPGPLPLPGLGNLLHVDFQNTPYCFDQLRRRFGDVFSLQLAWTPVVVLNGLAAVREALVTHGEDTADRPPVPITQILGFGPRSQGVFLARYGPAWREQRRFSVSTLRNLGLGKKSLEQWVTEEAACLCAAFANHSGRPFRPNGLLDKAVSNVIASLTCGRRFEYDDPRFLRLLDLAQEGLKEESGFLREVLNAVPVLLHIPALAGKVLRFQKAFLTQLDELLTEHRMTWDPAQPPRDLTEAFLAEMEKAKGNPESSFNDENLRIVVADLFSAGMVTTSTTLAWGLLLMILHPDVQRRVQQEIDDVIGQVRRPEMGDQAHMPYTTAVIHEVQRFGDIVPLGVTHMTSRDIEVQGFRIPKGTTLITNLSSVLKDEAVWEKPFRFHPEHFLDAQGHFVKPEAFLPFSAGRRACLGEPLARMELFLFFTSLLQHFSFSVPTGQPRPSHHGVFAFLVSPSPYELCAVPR
The assay is described as follows: biochemical. It is filed as in vitro ADME. Summed up:
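Read-out is LC-MS/MS of supernatant, giving % inhibition and IC50 relative to a no-inhibitor ACN/DMSO control. Compound and substrate pool were pre-incubated 20 min at 37° C with human liver microsomes (working stock 0.253 mg/mL) before a 10 min NADPH-driven reaction, quenched with cold ACN.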

The next assay deals with T3, CYP3A4 (Homo sapiens, UniProt P08684).
T3 construct: from tissue; host or cells: human liver microsomes
T3 sequence (P08684 whole entry): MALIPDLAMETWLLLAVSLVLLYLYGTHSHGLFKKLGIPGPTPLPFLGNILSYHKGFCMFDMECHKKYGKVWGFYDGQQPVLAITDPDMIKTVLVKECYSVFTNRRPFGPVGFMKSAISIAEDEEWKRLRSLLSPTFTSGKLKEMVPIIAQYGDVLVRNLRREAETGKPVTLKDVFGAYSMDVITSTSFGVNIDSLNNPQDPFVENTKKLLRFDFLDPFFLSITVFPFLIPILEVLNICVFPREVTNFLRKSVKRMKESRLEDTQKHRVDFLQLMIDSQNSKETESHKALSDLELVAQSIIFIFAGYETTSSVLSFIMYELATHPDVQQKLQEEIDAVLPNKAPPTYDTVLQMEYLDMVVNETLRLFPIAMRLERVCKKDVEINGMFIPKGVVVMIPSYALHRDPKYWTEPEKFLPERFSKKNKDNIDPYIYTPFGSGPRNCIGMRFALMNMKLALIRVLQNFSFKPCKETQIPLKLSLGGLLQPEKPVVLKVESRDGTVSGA
The assay is described as follows: CYP inhibition assay, human liver microsomes, substrate midazolam. It is filed as in vitro ADME. The following applies: human liver microsomes, 10 min incubation, LC-MS/MS; read-out: CYP Inhibition Activity (IC50/nM) CYP3A4. Summed up:
as §1

A further assay deals with T4, CYP1A2 (Homo sapiens, UniProt P05177).
T4 construct: from tissue; host or cells: human liver microsomes
T4 sequence (P05177 1-516): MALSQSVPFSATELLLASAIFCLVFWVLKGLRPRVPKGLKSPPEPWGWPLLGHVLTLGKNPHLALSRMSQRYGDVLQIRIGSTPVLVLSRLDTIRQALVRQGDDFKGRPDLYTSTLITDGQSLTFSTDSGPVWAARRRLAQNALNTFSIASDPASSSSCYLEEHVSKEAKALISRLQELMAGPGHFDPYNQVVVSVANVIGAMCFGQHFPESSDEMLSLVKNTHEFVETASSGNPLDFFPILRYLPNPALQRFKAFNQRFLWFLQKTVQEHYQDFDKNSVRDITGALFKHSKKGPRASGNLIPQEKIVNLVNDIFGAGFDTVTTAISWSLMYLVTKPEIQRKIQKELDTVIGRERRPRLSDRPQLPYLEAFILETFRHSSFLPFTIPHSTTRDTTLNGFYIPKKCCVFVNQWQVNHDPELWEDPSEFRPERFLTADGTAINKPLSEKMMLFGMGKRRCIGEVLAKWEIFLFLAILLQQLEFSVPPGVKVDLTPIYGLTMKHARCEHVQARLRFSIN
The assay is described as follows: CYP inhibition assay, human liver microsomes, substrate tacrine. It is filed as in vitro ADME. The conditions noted are these: human liver microsomes, 10 min incubation, LC-MS/MS; read-out: CYP Inhibition Activity (IC50/nM) CYP1A2. The essentials:
as §1

A further assay deals with SRPK1 (Homo sapiens, UniProt Q96SB4). Briefly: In vitro SRPK1 assay (Kinase-Glo). It is filed as biochemical.
SRPK1, sequence (Q96SB4 whole entry, species assumed): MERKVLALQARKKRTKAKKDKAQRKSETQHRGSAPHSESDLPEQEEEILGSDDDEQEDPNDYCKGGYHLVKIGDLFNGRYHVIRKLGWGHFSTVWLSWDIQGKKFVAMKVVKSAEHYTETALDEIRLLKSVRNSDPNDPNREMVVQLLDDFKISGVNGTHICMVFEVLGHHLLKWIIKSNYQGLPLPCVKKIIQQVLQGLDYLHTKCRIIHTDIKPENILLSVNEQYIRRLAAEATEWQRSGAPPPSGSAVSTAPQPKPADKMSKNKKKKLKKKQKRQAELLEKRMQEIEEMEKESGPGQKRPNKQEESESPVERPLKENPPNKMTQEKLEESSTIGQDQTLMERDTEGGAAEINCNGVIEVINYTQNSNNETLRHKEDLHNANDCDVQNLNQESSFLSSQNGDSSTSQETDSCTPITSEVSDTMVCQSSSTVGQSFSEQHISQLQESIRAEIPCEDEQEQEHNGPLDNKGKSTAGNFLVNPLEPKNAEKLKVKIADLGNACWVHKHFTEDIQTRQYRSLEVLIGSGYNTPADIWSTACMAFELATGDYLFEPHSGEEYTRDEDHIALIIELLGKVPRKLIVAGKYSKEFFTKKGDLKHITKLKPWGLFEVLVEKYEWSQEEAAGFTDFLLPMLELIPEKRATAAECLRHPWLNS
A further assay concerns the target T5, CYP2C19 (Homo sapiens, UniProt P33261).
T5 construct: from tissue; host or cells: human liver microsomes
The assay is described as follows: CYP inhibition assay, human liver microsomes, substrate S-mephenytoin. Format: in vitro ADME. The following applies: human liver microsomes, 10 min incubation, LC-MS/MS; read-out: CYP Inhibition Activity (IC50/nM) CYP2C19. The essentials: as §1

Where [1] appears, read: human liver microsomes, 10 min incubation, LC-MS/MS, read-out: CYP Inhibition Activity (IC50/nM) CYP2C9.

T5 sequence (P33261 whole entry): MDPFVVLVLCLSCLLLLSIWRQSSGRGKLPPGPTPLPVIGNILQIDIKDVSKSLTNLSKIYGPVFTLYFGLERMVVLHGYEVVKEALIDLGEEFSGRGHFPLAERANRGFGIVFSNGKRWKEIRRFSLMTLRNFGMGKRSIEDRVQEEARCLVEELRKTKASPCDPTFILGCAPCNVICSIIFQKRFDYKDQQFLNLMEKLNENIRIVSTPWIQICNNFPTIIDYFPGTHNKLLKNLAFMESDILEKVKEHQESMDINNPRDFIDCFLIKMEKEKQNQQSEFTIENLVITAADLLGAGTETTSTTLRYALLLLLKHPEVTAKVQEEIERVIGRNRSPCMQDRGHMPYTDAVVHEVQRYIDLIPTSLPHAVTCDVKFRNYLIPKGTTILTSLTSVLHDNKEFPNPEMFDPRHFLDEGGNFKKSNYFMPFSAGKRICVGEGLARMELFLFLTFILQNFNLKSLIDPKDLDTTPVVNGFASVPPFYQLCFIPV
T1 sequence (P11712 whole entry): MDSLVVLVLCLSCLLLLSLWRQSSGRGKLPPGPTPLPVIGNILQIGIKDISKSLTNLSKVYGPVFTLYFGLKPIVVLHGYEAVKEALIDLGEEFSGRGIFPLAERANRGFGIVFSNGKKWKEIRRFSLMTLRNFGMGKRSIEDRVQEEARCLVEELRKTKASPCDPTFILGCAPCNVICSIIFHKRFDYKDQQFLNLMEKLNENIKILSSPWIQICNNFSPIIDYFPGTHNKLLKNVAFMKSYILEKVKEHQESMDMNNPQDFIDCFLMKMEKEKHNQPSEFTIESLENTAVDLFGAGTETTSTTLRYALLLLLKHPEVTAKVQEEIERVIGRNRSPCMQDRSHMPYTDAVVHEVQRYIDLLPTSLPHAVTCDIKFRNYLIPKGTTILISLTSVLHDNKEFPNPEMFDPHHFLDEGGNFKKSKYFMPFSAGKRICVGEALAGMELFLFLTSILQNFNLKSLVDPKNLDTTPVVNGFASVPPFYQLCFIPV

In the case of `CC1(C(=O)N2CCOCC2)CCN(c2ccc(C(F)(F)F)cc2NC(=O)c2ccc(C3CCOCC3)o2)CC1` [Example 90, N-(2-(4-methyl-4-(morpholine-4-carbonyl)-piperidin-1-yl)-5-(trifluoromethyl)phenyl)-5-(tetrahydro-2H-pyran-4-yl)furan-2-carboxamide], the IC50 at CYP2C9 (setting [1]) is 1000 nM; on CYP2D6, 11600 nM; on CYP3A4, 2800 nM; on CYP1A2 it was > 30000 nM; against SRPK1, 5.5 nM; at CYP2C19, 10300 nM.

Take `CN(C)CC1(C)CCN(c2ccc(Cl)cc2NC(=O)c2ccc(C3CCOCC3)o2)CC1` [Example 91, N-(5-chloro-2-(4-((dimethylamino)methyl)-4-methylpiperidin-1-yl)phenyl)-5-(tetrahydro-2H-pyran-4-yl)furan-2-carboxamide]: the IC50 on CYP2C9 (setting [1]) is 14900 nM; against CYP2D6, 200 nM; at CYP3A4, 19000 nM; at CYP1A2, > 30000 nM; against SRPK1, 41 nM; on CYP2C19, 20800 nM.

Regarding `COc1ccc(N2CCC(C)(CN(C)C)CC2)c(NC(=O)c2ccc(C3CCOCC3)o2)c1` [Example 92, N-(2-(4-((dimethylamino)methyl)-4-methyl-piperidin-1-yl)-5-methoxyphenyl)-5-(tetrahydro-2H-pyran-4-yl)furan-2-carboxamide], the IC50 at CYP2C9 (setting [1]) was 10400 nM; at CYP2D6, 1500 nM; at CYP3A4, > 30000 nM; at CYP1A2 it was > 30000 nM; against SRPK1 it was 150 nM; at CYP2C19, > 30000 nM.

For the compound `CN(C)CC1(C)CCN(c2ccc(C3CC3)cc2NC(=O)c2ccc(C3CCOCC3)o2)CC1` [Example 93, N-(5-cyclopropyl-2-(4-((dimethylamino)methyl)-4-methylpiperidin-1-yl)phenyl)-5-(tetrahydro-2H-pyran-4-yl)furan-2-carboxamide], the IC50 at CYP2C9 (setting [1]) is 13700 nM; against CYP2D6 it was 24300 nM; at CYP3A4 it was 29500 nM; at CYP1A2, > 30000 nM; against SRPK1, 28 nM; on CYP2C19 it was 25700 nM.

Regarding `Cc1ccc(N2CCC(C)(CN(C)C)CC2)c(NC(=O)c2ccc(C3CCOCC3)o2)c1` [Example 94, N-(2-(4-((dimethylamino)methyl)-4-methyl-piperidin-1-yl)-5-methylphenyl)-5-(tetrahydro-2H-pyran-4-yl)furan-2-carboxamide], the IC50 on CYP2C9 (setting [1]) is 17200 nM; against CYP2D6, 300 nM; at CYP3A4 it was 23100 nM; on CYP1A2, > 30000 nM; against SRPK1, 167 nM; at CYP2C19 it was 25100 nM.

On to `CC1(CN2CCCC2)CCN(c2ccc(C(F)(F)F)cc2NC(=O)c2ccc(C3CCOCC3)o2)CC1` [Example 95, N-(2-(4-methyl-4-(pyrrolidin-1-ylmethyl)piperidin-1-yl)-5-(trifluoromethyl)phenyl)-5-(tetrahydro-2H-pyran-4-yl)furan-2-carboxamide], for which the IC50 was 10100 nM on CYP2C9 (setting [1]); 400 nM at CYP2D6; 7300 nM at CYP3A4; > 30000 nM on CYP1A2; 24 nM against SRPK1; > 30000 nM on CYP2C19.

Take `CC1(CN2CCCCC2)CCN(c2ccc(C(F)(F)F)cc2NC(=O)c2ccc(C3CCOCC3)o2)CC1` [Example 96, N-(2-(4-methyl-4-(piperidin-1-ylmethyl)piperidin-1-yl)-5-(trifluoromethyl)phenyl)-5-(tetrahydro-2H-pyran-4-yl)furan-2-carboxamide]: the IC50 at CYP2C9 (setting [1]) is 17800 nM; against CYP2D6 it was 200 nM; at CYP3A4, 7700 nM; at CYP1A2, > 30000 nM; against SRPK1, 49 nM; at CYP2C19, > 30000 nM.

`CC1(CN2CCOCC2)CCN(c2ccc(C(F)(F)F)cc2NC(=O)c2ccc(C3CCOCC3)o2)CC1` [Example 97, N-(2-(4-methyl-4-(morpholinomethyl)piperidin-1-yl)-5-(trifluoromethyl)phenyl)-5-(tetrahydro-2H-pyran-4-yl)furan-2-carboxamide]: the IC50 was 200 nM on CYP2C9 (setting [1]); 8100 nM against CYP2D6; 9400 nM at CYP3A4; > 30000 nM on CYP1A2; 6 nM at SRPK1; 2700 nM at CYP2C19.

For the compound `O=C(Nc1cc(C(F)(F)F)ccc1N1CCC2(CCCC2)CC1)c1ccc(C2CCOCC2)o1` [Example 98, N-(2-(8-azaspirol4.51decan-8-yl)-5-(trifluoromethyl)phenyl)-5-(tetrahydro-2H-pyran-4-yl)furan-2-carboxamide], the IC50 against CYP2C9 was 18600 nM; at CYP2D6 (human liver microsomes, 10 min incubation, LC-MS/MS, read-out: CYP Inhibition Activity (IC50/nM) CYP2D6), > 30000 nM; at CYP3A4 it was > 30000 nM; at CYP1A2, > 30000 nM; against SRPK1 it was 7.5 nM; at CYP2C19, > 30000 nM.

For the compound `CN1CCC2(CCN(c3ccc(C(F)(F)F)cc3NC(=O)c3ccc(C4CCOCC4)o3)CC2)C1` [Example 99, N-(2-(2-methyl-2,8-diazaspiro[4.5]decan-8-yl)-5-(trifluoromethyl)phenyl)-5-(tetrahydro-2H-pyran-4-yl)furan-2-carboxamide], the IC50 on CYP2C9 (setting [1]) was > 30000 nM; on CYP2D6, 3000 nM; on CYP3A4, 18000 nM; at CYP1A2, > 30000 nM; at SRPK1, 4.8 nM; on CYP2C19 it was > 30000 nM.

Take `CN1CCC2(CCN(c3ccc(C(F)(F)F)cc3NC(=O)c3ccc(C4CCOCC4)o3)CC2)C1=O` [Example 100, N-(2-(2-methyl-1-oxo-2,8-diazaspiro[4.5]decan-8-yl)-5-(trifluoromethyl)phenyl)-5-(tetrahydro-2H-pyran-4-yl)furan-2-carboxamide]: the IC50 on CYP2C9 (setting [1]) is 7300 nM; on CYP2D6, 13800 nM; on CYP3A4 it was 2700 nM; on CYP1A2, > 30000 nM; on SRPK1, 2.6 nM; at CYP2C19, 3200 nM.

As for `CC1(N)CCN(c2ccc(C(F)(F)F)cc2NC(=O)c2ccc(C3CCOCC3)o2)CC1` [Example 101, N-(2-(4-amino-4-methylpiperidin-1-yl)-5-(trifluoromethyl)-phenyl)-5-(tetrahydro-2H-pyran-4-yl)furan-2-carboxamide], the IC50 on CYP2C9 (setting [1]) is > 30000 nM; at CYP2D6, 4800 nM; on CYP3A4, > 30000 nM; on CYP1A2, > 30000 nM; on SRPK1 it was 15.1 nM; at CYP2C19 it was > 30000 nM.

In the case of `CC1(N)CCN(c2ccc(C(F)(F)F)cc2NC(=O)c2ccc(-c3ccncc3)o2)CC1` [Example 102, N-(2-(4-amino-4-methylpiperidin-1-yl)-5-(trifluoromethyl)phenyl)-5-(pyridin-4-yl)furan-2-carboxamide], the IC50 is 14100 nM on CYP2C9 (setting [1]); 100 nM against CYP2D6; 3900 nM on CYP3A4; > 30000 nM at CYP1A2; 44.6 nM against SRPK1; 9400 nM at CYP2C19.
